Source: PubChem BioAssay (NCI)
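Where inhibition never reached the appropriate level, the endpoint shown equals the highest concentration tested. Otherwise, values were interpolated linearly from a five-concentration, 48-hour dose response in 96-well plates. At the TGI there is no net growth.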

How the values were obtained:
Assay in all cases: inhibition of tumour cell growth, NCI panel, 48 h
LOX IMVI melanoma = tested on: LOX IMVI melanoma
DU-145 prostate = tested on: DU-145 prostate
NCI-H226 lung = tested on: NCI-H226 lung
HOP-92 NSCLC = tested on: HOP-92 NSCLC
HCT-15 colon = tested on: HCT-15 colon
UACC-62 melanoma = tested on: UACC-62 melanoma
MDA-N = tested on: MDA-N
CAKI-1 renal = tested on: CAKI-1 renal
SW-620 colon = tested on: SW-620 colon
BT-549 breast = tested on: BT-549 breast
HL-60(TB) leukemia = tested on: HL-60(TB) leukemia

Measured: TGI

CC/C(=C\c1ccc(OC)cc1)c1ccc(OC)cc1
not listed: HL-60(TB) leukemia
> 100 µM: all other assays above

O=C(O)c1ccc(N/C(=C(/C(Cl)=C(Cl)Cl)[N+](=O)[O-])n2nnc3ccccc32)cc1
not listed: LOX IMVI melanoma | DU-145 prostate | HOP-92 NSCLC | HL-60(TB) leukemia
> 100 µM: all other assays above

Cc1ccc(S(=O)(=O)Nn2c(O)c(C#N)c(-c3ccc([N+](=O)[O-])cc3)c(C#N)c2=O)cc1
not listed: DU-145 prostate
> 100 µM: all other assays above

N#Cc1nc(-c2cccc(-c3nc(C#N)c(N)o3)n2)oc1N
not listed: BT-549 breast
> 100 µM: all other assays above

O=c1[nH]c2ccc([N+](=O)[O-])cc2nc1/C=C(\O)c1ccccc1
62 µM: CAKI-1 renal
> 100 µM: DU-145 prostate | NCI-H226 lung | HCT-15 colon | UACC-62 melanoma | MDA-N | BT-549 breast

O=c1[nH]nc(-c2ccccc2)n1-n1cnnc1
not listed: DU-145 prostate | HL-60(TB) leukemia
> 100 µM: all other assays above

Cc1ccc(S(=NS(=O)(=O)c2ccc(C)cc2)c2ccc(C)cc2)cc1
not listed: LOX IMVI melanoma | UACC-62 melanoma | CAKI-1 renal
> 100 µM: all other assays above

O=C1N(c2ccccc2)C(=S)/C(=C/c2ccc(Cl)cc2)N1c1ccc(Cl)cc1
76.5 µM: LOX IMVI melanoma
74.4 µM: HL-60(TB) leukemia
53.3 µM: UACC-62 melanoma
not listed: NCI-H226 lung | HOP-92 NSCLC
> 100 µM: all other assays above

C=C1C(=O)OC2C3OC(C)(CCC(O)C3COC(C)=O)CC(OC(=O)/C(=C/C)COC(C)=O)C12 (stereo not given)
0.645 µM: MDA-N
8.4 µM: NCI-H226 lung
0.39 µM: CAKI-1 renal
2.04 µM: DU-145 prostate
0.722 µM: BT-549 breast
0.392 µM: HOP-92 NSCLC
0.342 µM: LOX IMVI melanoma
0.141 µM: HCT-15 colon
0.261 µM: SW-620 colon
0.971 µM: UACC-62 melanoma

O=C(Nc1ccc(Cl)cc1)c1cc(S(=O)(=O)Nc2n[nH]c(=O)n2-c2ccccc2)c(S)cc1Cl
not listed: MDA-N
> 100 µM: all other assays above

CC(C)=NOC(=O)Nc1cccc2c1OCO2
not listed: MDA-N | BT-549 breast | HL-60(TB) leukemia
> 100 µM: all other assays above

O=C1C(c2c(O)[nH]c3ccc(S(=O)(=O)NCCO)cc23)=Nc2ccccc21
82.4 µM: HOP-92 NSCLC
46.8 µM: DU-145 prostate
18.7 µM: BT-549 breast
not listed: HL-60(TB) leukemia
> 100 µM: all other assays above

N#Cc1nc(/C=C/c2cccnc2)oc1N
not listed: BT-549 breast
> 100 µM: all other assays above

CCCCCCCCCCCCOP(=O)(O)OP(=O)(O)OCC1OC(n2cc(C)c(=O)[nH]c2=O)CC1O (stereo not given)
not listed: DU-145 prostate | UACC-62 melanoma
> 100 µM: all other assays above

CCCCC[C@H]1CCCCCCCCCC(=O)OC2C(O[C@@H]3OC(C)[C@H](OC(=O)[C@@H](C)CC)C(O[C@@H]4OC(C)[C@H](O)C(O)[C@@H]4O)[C@@H]3OC(=O)[C@H](C)CC)[C@H](OC3C(O)[C@@H](O)C(C)O[C@H]3O1)OC(CO)[C@H]2O (stereo not given in full)
31.4 µM: LOX IMVI melanoma | MDA-N
31.7 µM: CAKI-1 renal
30.9 µM: UACC-62 melanoma | SW-620 colon
30.6 µM: HCT-15 colon
35.9 µM: HL-60(TB) leukemia
30 µM: DU-145 prostate
37.1 µM: HOP-92 NSCLC

S=c1nc[nH]c2c1ncn2C1CCCO1 (stereo not given)
not listed: DU-145 prostate | NCI-H226 lung | MDA-N | BT-549 breast
> 100 µM: all other assays above

COC(=O)c1cc(/C=C\c2cc(OC)ccc2OC)ccc1OC
90.8 µM: UACC-62 melanoma
56.9 µM: LOX IMVI melanoma
not listed: NCI-H226 lung | HOP-92 NSCLC | HL-60(TB) leukemia
> 100 µM: all other assays above

COc1ccc2c([nH]c3c(O)c(-c4c(C)cc5c([nH]c6c(CC=C(C)C)c(OC)ccc65)c4O)c(C)cc32)c1CC=C(C)C
not listed: DU-145 prostate | NCI-H226 lung | MDA-N | BT-549 breast
> 100 µM: all other assays above

NS(=O)(=O)c1ccc(N=Nc2ccc(O)c(C(=O)O)c2)cc1
not listed: LOX IMVI melanoma
> 100 µM: all other assays above

O=S(=O)(O)c1cc(S(=O)(=O)O)c2c(N=Nc3ccc(N=Nc4ccccc4)cc3)c(O)ccc2c1
not listed: LOX IMVI melanoma
> 100 µM: all other assays above

O=c1c2ccccc2nc(-c2ccccc2)n1NC(=S)Nc1cccc(Cl)c1
94.5 µM: HOP-92 NSCLC
not listed: DU-145 prostate | MDA-N | BT-549 breast
> 100 µM: all other assays above

COCCN1C(=O)C2c3[nH]c4ccccc4c3C3CCC(C(C)(C)C)CC3C2C1=O (stereo not given)
37.1 µM: DU-145 prostate
> 10 µM: UACC-62 melanoma
39 µM: NCI-H226 lung
30.1 µM: MDA-N
36.3 µM: HCT-15 colon
37.6 µM: CAKI-1 renal | HL-60(TB) leukemia
35.3 µM: BT-549 breast
35.5 µM: SW-620 colon
